Where “and” joins values, the source holds several entries; their conditions need not be identical. Equal values may be shown once.
Legend:
Trypanosoma cruzi [1] = experiment: microbe, parasite or virus in culture; format: functional, organism-based, Tulahuen LacZ, Clone C4
L6 = experiment: (§1) DNDI: Cytotoxicity against L-6 rat myoblasts from skeletal muscle cells; conditions: L6 rat skeletal muscle myoblast cells
[2] = as §1; conditions: L6 rat skeletal muscle myoblast cells
Trypanosoma cruzi [3] = experiment: microbe, parasite or virus in culture; format: functional, Tulahuen LacZ, Clone C4
[4] = Trypanosoma cruzi, Tulahuen LacZ, Clone C4

SMILES | IC50 (Trypanosoma cruzi [1]) | IC50 (Trypanosoma cruzi [1]; [4]) [nM] | IC50 (L6) [nM] | IC50 [2] [nM] | IC90 (Trypanosoma cruzi [3]; [4]) [nM] | IC90 (Trypanosoma cruzi [3]) | IC50 ([2]; IC50) [nM]
OC(c1ccc(Cl)cc1)(c1cccnc1)c1ccccc1Cl (stereo not given) | 210 nM | 270 | 61300 | 60000 |  |  | 
O=C(Oc1ccccc1)N1CCN(C(c2cccnc2)c2ccc(Cl)cc2F)CC1 (stereo not given) |  | 4.5 | 59100 |  | 12 |  | 
CC(C)(C)C(=O)N1CCN(C(c2cccnc2)c2ccc(Cl)cc2F)CC1 (stereo not given) |  | 19 | 60300 |  | 88 |  | 
CC(C)(C)C(=O)N1CCN(C(c2cccnc2)c2ccc(C(F)(F)F)cc2F)CC1 (stereo not given) |  | 23.5 | 72900 |  | 68.5 |  | 
O=C(Nc1ccc(Cl)cc1)N1CCN(C(c2cncnc2)c2ccc(Cl)cc2F)CC1 (stereo not given) |  | 10 | 33600 |  | 30 |  | 
CS(=O)(=O)c1ccc(N2CCC(NC(c3cccnc3)c3ccc(Cl)cc3F)CC2)cc1 (stereo not given) | 2.6 nM and 6 nM |  | 26600 |  | 7.5 | 8 nM | 49700
Fc1cc(Cl)ccc1C(NC1CCN(c2ccc(C(F)(F)F)cc2F)CC1)c1cccnc1 (stereo not given) | 8 nM and 16.5 nM |  | 53000 |  | 24 | 31.5 nM | 51500
FC(F)(F)c1ccc(N2CCC(NC(c3ccc(Cl)cc3)c3cccnc3)CC2)cn1 (stereo not given) | 6.6 nM | 7 | 54400 |  | 17.5 | 16 nM | 39600
CC(C)CCON=C(Cc1cccnc1)c1ccc(Cl)cc1Cl |  |  | 58700 |  |  |  | 61000
CC(C)c1ccc(NC(=O)N2CCN(C(c3cncnc3)c3ccc(Cl)cc3F)CC2)cc1 (stereo not given) |  | 6.5 | 61900 |  | 16 |  | 
Cc1noc(N2CCN(C(c3cccnc3)c3ccc(C(F)(F)F)cc3F)CC2)n1 (stereo not given) |  | 16.5 | 51200 |  | 33 |  | 
CC(C)Oc1ccc(C(O)(c2ccc(Cl)cc2)c2cccnc2)cc1 (stereo not given) | 8.2 nM and 2 nM |  | 56600 | 52000 |  | 18 nM and 6 nM | 
O=C(NC1CCN(C(c2ccc(C(F)(F)F)cc2)c2cccnc2)CC1)c1c(F)cccc1F (stereo not given) | 8.5 nM | 16.5 | > 100000 |  | 24 | 37 nM | 56700
N#Cc1cccc(N2CCC(NC(c3cccnc3)c3ccc(Cl)cc3F)CC2)c1 (stereo not given) | 12.5 nM | 21 | 32200 |  | 37 | 34 nM | 55400
OC(c1ccc(Cl)cc1)(c1cccnc1)c1cccs1 (stereo not given) | 17 nM | 13 | 67700 |  | 108 | 99 nM | > 100000
Fc1cc(Cl)ccc1C(NC1CCN(c2ccc(C(F)(F)F)cc2)CC1)c1cccnc1 (stereo not given) | 11 nM and 10.5 nM | 9.5 | 52400 |  | 29.5 | 37.5 nM and 34 nM | 55700
CS(=O)(=O)N1CCN(C(c2cccnc2)c2ccc(C(F)(F)F)cc2F)CC1 (stereo not given) |  | 27.5 | 76800 |  | 82.5 |  | 
CON=C(Cc1cccnc1)c1ccc(Cl)cc1Cl | 210 nM and 470 nM and 294 nM |  | 81000 |  |  |  | > 100000
N#Cc1ccc(C(O)(c2ccc(C(F)(F)F)cc2)c2cccnc2)c(F)c1 (stereo not given) | 5.5 nM and 1.9 nM |  | 56100 |  | 12.5 | 9.52 nM | 77200
CC(C)(C)OC(=O)N1CCN(C(c2ccc(C(F)(F)F)cc2)c2cccnc2)CC1 (stereo not given) |  | 17 | 56200 |  | 54 |  | 
FC(F)(F)c1ccc(N2CCC(NC(c3ccc(Cl)cc3)c3cccnc3)CC2)nc1 (stereo not given) | 19 nM and 46 nM |  | 62500 |  | 48 | 90 nM | 55300
CC(C)(C)C(=O)N1CCN(C(c2ccc(C(F)(F)F)cc2)c2cccnc2)CC1 (stereo not given) |  | 30 | 58600 |  | 127 |  | 
Cc1ccc(C(O)(c2ccc(Cl)cc2)c2cncnc2)cc1 (stereo not given) | 68 nM and 23.8 nM |  | 67400 |  | 158 | 310 nM | 79300

From ChEMBL document CHEMBL1862790, “Optimisation of fenarimol series for the treatment of Chagas disease”
